Experimental findings from patent US10072026B2, “Crystalline form of 3-((1R,3s,5S)-3-((7-((5-methyl-1H-pyrazol-3-yl)amino)-1,6-naphthyridin-5-yl)amino)-8-azabicyclo[3.2.1]octan-8-yl)propanenitrile” (priority 2015, dated 2018) are described below.

Usually bioavailability stands for dose-corrected exposure relative to a reference, in per cent.

For one series, the target named is JAK1 (Homo sapiens (Human), UniProt P23458). As to the kind of experiment: LanthaScreen JAK biochemical assay (JAK1).
For a further series, the target named is JAK2 (Homo sapiens (Human), UniProt O60674). As to the kind of experiment: LanthaScreen JAK biochemical assay (JAK2). The note with it: for Ki: read-out: JAK 2 (pKi) (converted). Background: In TR-FRET formats the signal depends on donor and acceptor labels being close together.
Chain of JAK2 (O60674 whole entry): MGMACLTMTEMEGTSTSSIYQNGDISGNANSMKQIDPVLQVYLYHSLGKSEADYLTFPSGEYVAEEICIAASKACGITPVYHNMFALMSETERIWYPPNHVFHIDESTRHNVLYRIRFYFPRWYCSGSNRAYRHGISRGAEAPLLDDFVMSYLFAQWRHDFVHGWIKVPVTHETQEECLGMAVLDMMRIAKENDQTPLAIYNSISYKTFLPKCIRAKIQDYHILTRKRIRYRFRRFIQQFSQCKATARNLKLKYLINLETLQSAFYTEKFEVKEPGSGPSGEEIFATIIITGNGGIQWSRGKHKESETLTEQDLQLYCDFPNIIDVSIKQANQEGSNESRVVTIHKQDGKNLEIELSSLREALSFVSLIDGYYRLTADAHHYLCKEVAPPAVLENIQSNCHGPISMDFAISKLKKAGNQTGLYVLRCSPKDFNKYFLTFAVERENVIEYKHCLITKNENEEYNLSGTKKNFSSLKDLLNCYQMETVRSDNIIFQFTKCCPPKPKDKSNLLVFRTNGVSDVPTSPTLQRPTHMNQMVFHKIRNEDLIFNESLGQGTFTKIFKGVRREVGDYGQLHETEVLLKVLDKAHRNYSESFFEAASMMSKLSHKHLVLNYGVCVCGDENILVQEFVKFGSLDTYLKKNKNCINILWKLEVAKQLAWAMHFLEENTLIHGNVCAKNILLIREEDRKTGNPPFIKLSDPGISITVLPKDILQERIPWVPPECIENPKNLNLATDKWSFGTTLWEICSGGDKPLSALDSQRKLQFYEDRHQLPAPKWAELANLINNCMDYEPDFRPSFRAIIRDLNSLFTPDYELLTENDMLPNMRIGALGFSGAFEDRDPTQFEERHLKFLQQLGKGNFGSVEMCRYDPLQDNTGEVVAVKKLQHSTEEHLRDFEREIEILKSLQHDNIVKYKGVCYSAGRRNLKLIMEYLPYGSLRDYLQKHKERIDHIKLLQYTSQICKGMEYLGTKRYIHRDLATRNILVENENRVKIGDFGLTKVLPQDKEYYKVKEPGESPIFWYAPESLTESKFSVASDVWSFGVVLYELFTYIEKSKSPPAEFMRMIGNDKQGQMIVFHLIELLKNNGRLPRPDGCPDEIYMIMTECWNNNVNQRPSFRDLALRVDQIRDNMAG
A further series deals with JAK3 (Homo sapiens (Human), UniProt P52333). The series is described as follows: LanthaScreen JAK biochemical assay (JAK3).
In series [1] the test system is oxazolone-induced colitis. As to the kind of experiment: Mouse model of oxazolone-induced colitis. In kind it is in vivo, BALB/C mice. The note with it: mouse, PO, 1, 3, and/or 10 mg/kg BID. The protocol: Assay 7: Mouse Model of Oxazalone-Induced Colitis
Oxazolone-induced colitis is an experimental model that has a histological resemblance to human ulcerative colitis (Heller et al. Immunology, 2002, 17, 629-638). Adult BALB/C mice from Harlan were used in the assay. On day 1, animals were lightly anesthetized with isoflurane and the hairs between the shoulder were carefully removed before oxazolone (4%, 150 μL, 4:1 acetone:olive oil formulation) or vehicle solution was slowly applied for skin sensitization. Seven days after skin sensitization, the mice were fasted overnight, anesthetized with isoflurane inhalation, and a 1 mL syringe equipped with a 3.5-F catheter, filled with oxazolone solution, was inserted carefully about 4 cm into the colon of the mouse. Following insertion, 50 μL of the oxazolone solution (1%, 1:1 ethanol:water formulation) was injected very slowly (over 30 sec using an injection pump) into the colon. The catheter was removed and the mice were held vertically (head down) for 2 min to ensure that the entire oxazolone solution remained inside the colon. Drug treatment (PO, BID or TID) or vehicle was initiated a day prior to the oxazolone intrarectal (IR) challenge. Two-day post oxazolone intrarectal challenge, the Disease Activity Index (DAI) was assessed by treatment-blinded experimenters for each mouse according to the criteria score: stool consistency score (0, normal; 2, loose; 4, diarrhea), gross bleeding score (0, absence; 2, blood tinged; 4, presence), and weight loss score (0, none; 1, 1%-5%; 2, 5%-10%; 3, 10%-20%; 4, more than 20%); DAI=average of (stool consistency score+gross bleeding score+weight loss score).
Selected compounds of the invention were tested in the assay. Efficacy in the model is evidenced by a decrease in DAI score as compared with the score from vehicle treated animals.

For series [2], the system named is IL-4 induced STAT6 phosphorylation in THP-1 human monocytic cells. The series is described as follows: Cellular JAK potency assay, THP-1. The note with it: for THP-1 IL4 pIC50: IL-4 induced STAT6 phosphorylation, THP-1 cells; for IC50: Homo sapiens, THP-1, read-out: THP-1 IL4 pIC50 (converted).
For the next series, the target named is Tyk2 (Homo sapiens (Human), UniProt P29597). As to the kind of experiment: LanthaScreen JAK biochemical assay (Tyk2). The note with it: for Ki: read-out: Tyk 2 (pKi) (converted).
Chain of Tyk2 (P29597 whole entry): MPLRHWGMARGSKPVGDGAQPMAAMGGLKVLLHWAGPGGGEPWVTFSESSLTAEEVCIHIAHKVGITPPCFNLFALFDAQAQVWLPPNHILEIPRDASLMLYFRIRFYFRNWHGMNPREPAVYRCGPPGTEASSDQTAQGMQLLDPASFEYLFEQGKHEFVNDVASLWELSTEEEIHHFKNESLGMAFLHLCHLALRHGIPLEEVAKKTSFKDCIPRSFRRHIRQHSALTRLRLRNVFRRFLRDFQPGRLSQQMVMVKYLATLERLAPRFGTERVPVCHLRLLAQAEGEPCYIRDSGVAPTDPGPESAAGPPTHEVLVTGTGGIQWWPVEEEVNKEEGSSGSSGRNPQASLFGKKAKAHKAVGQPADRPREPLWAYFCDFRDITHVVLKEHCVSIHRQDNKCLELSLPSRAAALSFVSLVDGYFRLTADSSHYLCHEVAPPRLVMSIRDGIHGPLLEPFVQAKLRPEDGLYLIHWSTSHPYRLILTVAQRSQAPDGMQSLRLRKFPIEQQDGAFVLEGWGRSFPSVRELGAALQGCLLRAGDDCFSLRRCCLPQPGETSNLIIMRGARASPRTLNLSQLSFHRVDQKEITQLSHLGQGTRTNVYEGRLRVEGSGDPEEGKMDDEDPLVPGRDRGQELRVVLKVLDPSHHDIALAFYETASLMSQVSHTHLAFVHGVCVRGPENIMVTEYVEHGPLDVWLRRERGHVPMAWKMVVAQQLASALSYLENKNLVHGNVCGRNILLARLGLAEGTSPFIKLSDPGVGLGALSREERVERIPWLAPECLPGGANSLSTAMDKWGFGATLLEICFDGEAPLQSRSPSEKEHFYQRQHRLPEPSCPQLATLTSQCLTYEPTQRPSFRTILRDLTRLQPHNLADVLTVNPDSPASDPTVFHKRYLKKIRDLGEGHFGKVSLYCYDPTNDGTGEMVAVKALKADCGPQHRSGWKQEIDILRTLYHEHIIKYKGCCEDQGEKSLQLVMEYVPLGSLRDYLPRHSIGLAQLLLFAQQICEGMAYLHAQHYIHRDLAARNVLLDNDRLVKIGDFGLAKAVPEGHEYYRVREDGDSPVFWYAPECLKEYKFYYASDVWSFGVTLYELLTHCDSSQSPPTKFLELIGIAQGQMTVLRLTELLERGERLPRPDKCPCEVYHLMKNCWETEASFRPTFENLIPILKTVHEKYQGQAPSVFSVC
Series [3] deals with IL-13 induced STAT6 phosphorylation in BEAS-2B human lung epithelial cells. As to the kind of experiment: AlphaScreen cellular JAK potency assay, BEAS-2B. The note with it: for BEAS2B pIC50: IL-13 induced STAT6 phosphorylation, BEAS-2B cells; for IC50: Homo sapiens, BEAS-2B, read-out: BEAS2B pIC50 (converted). (In general: Bead proximity is the source of the signal in Alpha formats.)

Series [4] in a line: Determination of absorption in cannulated rats. In kind it is in vivo. The note with it: Sprague Dawley rats, oral vs IV. The protocol: Drug levels were determined using an LC-MS-MS method. The resulting drug levels were used to compute the IV pharmacokinetic parameters: AUC IV and Dose IV. (2) Rats that have been cannulated in their portal vein (PV) and also in their jugular vein (JV) were dosed orally with test compound. Following oral dosing, plasma samples were typically collected from 0-6 hr from both the portal vein and the jugular vein. Drug levels were determined using an LC-MS-MS method. The resulting drug levels were used to compute the following pharmacokinetic parameters: AUC PO PV, AUC PO JV, and Dose PO. Using data derived from the above studies, the oral bioavailability F %, and the quantities Fa% and Fh% were calculated from the following formulas: F %=(AUC PO JV/AUC IV)*(Dose IV/Dose PO)*100 Fa%=(AUC PO PV/AUC IV)*(Dose IV/Dose PO)*100 Fh%=AUC PO JV/AUC PO PV where: AUC PO JV=Area under the curve following oral dose and plasma collected from the jugular vein AUC PO PV=Area under the curve following oral dose and plasma collected from the portal vein AUC IV=Area under the curve following an intravenous dose Dose IV=Intravenous Dose in mg/kg Dose PO=Oral Dose in mg/kg

Chain of JAK1 (P23458 whole entry): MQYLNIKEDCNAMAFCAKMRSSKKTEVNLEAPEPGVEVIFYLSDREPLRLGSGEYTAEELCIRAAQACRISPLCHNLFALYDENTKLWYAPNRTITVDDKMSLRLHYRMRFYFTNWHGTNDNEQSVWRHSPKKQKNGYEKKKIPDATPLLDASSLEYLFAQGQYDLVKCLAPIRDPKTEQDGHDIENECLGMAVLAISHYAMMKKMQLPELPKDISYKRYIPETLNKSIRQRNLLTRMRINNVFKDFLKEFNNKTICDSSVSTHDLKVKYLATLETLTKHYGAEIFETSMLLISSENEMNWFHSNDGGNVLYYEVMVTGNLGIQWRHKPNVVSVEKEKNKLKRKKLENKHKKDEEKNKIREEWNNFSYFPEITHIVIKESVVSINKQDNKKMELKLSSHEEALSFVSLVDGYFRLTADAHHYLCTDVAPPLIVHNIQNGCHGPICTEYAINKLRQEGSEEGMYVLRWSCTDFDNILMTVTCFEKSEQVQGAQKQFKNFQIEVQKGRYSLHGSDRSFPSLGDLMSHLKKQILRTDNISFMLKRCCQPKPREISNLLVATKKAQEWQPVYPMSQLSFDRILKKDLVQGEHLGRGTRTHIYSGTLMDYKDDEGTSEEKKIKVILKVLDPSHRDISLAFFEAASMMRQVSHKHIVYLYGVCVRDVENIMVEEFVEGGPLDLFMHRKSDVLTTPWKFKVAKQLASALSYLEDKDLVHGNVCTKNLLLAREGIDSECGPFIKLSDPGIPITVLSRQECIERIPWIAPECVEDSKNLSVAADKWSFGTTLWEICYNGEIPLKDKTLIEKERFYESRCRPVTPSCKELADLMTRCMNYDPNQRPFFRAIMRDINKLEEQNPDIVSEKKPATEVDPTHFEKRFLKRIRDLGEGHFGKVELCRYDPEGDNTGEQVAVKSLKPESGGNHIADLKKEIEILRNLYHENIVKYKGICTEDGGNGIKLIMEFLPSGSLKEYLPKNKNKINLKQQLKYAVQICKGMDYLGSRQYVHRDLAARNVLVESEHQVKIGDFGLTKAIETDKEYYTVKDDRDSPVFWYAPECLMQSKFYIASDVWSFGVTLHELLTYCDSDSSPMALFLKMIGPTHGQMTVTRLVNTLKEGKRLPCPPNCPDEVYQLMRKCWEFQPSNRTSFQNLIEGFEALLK

Turning to `Cc1cc(Nc2cc3ncccc3c(N[C@@H]3C[C@H]4CCC[C@@H](C3)N4CC(=O)N(C)C)n2)n[nH]1` [Example 1-38], the “JAK 1 (pKi)” value on JAK1 was “B (B represents a pKi value between 9 and 10 (Ki between 1 nM and 0.1 nM))”. On JAK2, the “JAK 2 (pKi)” value is “B (B represents a pKi value between 9 and 10 (Ki between 1 nM and 0.1 nM))”. The “JAK 3 (pKi)” value at JAK3 was “C (C represents a pKi value between 7 and 9 (Ki between 100 nM and 1 nM))”. The “decrease in DAI score as compared with vehicle treated animals” value (“decrease in DAI score” for short) in series [1] is “statistically significant decrease”. In addition, in series [2], the “THP-1 IL4 pIC50” value was “B (B represents a pEC50 value between 6.7 and 7.5 (EC50 between 200 nM and 32 nM))”.
Consider `CCC(C)C(=O)N1C2CCC1CC(Nc1nc(Nc3cc(C)[nH]n3)cc3ncccc13)C2` (stereo not drawn) [Example 2-6], for which, on JAK1, the “JAK 1 (pKi)” value is “B (B represents a pKi value between 9 and 10 (Ki between 1 nM and 0.1 nM))”. Moreover, the “JAK 2 (pKi)” value at JAK2 was “B (B represents a pKi value between 9 and 10 (Ki between 1 nM and 0.1 nM))”. Moreover, at JAK3, the “JAK 3 (pKi)” value is “C (C represents a pKi value between 7 and 9 (Ki between 100 nM and 1 nM))”. Moreover, the “Tyk 2 (pKi)” value on Tyk2 is “C (C represents a pKi value between 7 and 9 (Ki between 100 nM and 1 nM))”. Besides, the “decrease in DAI score” value in series [1] was “did not exhibit a statistically significant decrease”. For the same compound, the “THP-1 IL4 pIC50” value in series [2] is “B (B represents a pEC50 value between 6.7 and 7.5 (EC50 between 200 nM and 32 nM))”. Besides, the “BEAS2B pIC50” value in series [3] was “A (A represents a pEC50 value≥7.5 (EC50≤32 nM))”.
For `Cc1cc(Nc2cc3ncccc3c(NC3CC4CCCC(C3)N4C(=O)C(C)O)n2)n[nH]1` (stereo not drawn) [Example 2-16], the “JAK 1 (pKi)” value on JAK1 is “B (B represents a pKi value between 9 and 10 (Ki between 1 nM and 0.1 nM))”. In addition, the “JAK 2 (pKi)” value on JAK2 is “B (B represents a pKi value between 9 and 10 (Ki between 1 nM and 0.1 nM))”. Moreover, the “JAK 3 (pKi)” value at JAK3 is “C (C represents a pKi value between 7 and 9 (Ki between 100 nM and 1 nM))”. For the same compound, the “Tyk 2 (pKi)” value at Tyk2 was “B (B represents a pKi value between 9 and 10 (Ki between 1 nM and 0.1 nM))”. Besides, the “decrease in DAI score” value in series [1] is listed as “did not exhibit a statistically significant decrease”. In series [2], the “THP-1 IL4 pIC50” value is “B (B represents a pEC50 value between 6.7 and 7.5 (EC50 between 200 nM and 32 nM))”. The “BEAS2B pIC50” value in series [3] is “B (B represents a pEC50 value between 6.7 and 7.5 (EC50 between 200 nM and 32 nM))”.
On to `CCOCC(=O)N1[C@@H]2CCC[C@H]1C[C@H](Nc1nc(Nc3cc(C)[nH]n3)cc3ncccc13)C2` [Example 2-17], for which the “JAK 1 (pKi)” value at JAK1 was “B (B represents a pKi value between 9 and 10 (Ki between 1 nM and 0.1 nM))”. The “JAK 2 (pKi)” value on JAK2 is “B (B represents a pKi value between 9 and 10 (Ki between 1 nM and 0.1 nM))”. On JAK3, the “JAK 3 (pKi)” value was “C (C represents a pKi value between 7 and 9 (Ki between 100 nM and 1 nM))”. The “decrease in DAI score” value in series [1] is “did not exhibit a statistically significant decrease”. The “THP-1 IL4 pIC50” value in series [2] was “B (B represents a pEC50 value between 6.7 and 7.5 (EC50 between 200 nM and 32 nM))”. In addition, the “BEAS2B pIC50” value in series [3] is listed as “A (A represents a pEC50 value≥7.5 (EC50≤32 nM))”.
As to `Cc1cc(Nc2cc3ncccc3c(N[C@@H]3C[C@H]4CCC[C@@H](C3)N4C(=O)C(C)(C)CO)n2)n[nH]1` [Example 2-22], the “JAK 1 (pKi)” value at JAK1 was “B (B represents a pKi value between 9 and 10 (Ki between 1 nM and 0.1 nM))”. Moreover, at JAK2, the “JAK 2 (pKi)” value was “B (B represents a pKi value between 9 and 10 (Ki between 1 nM and 0.1 nM))”. Further, the “JAK 3 (pKi)” value at JAK3 is “C (C represents a pKi value between 7 and 9 (Ki between 100 nM and 1 nM))”. Besides, on Tyk2, the “Tyk 2 (pKi)” value was “B (B represents a pKi value between 9 and 10 (Ki between 1 nM and 0.1 nM))”. For the same compound, in series [1], the “decrease in DAI score” value is reported as “did not exhibit a statistically significant decrease”. Further, the “THP-1 IL4 pIC50” value in series [2] was “B (B represents a pEC50 value between 6.7 and 7.5 (EC50 between 200 nM and 32 nM))”. Moreover, the “BEAS2B pIC50” value in series [3] is on record as “A (A represents a pEC50 value≥7.5 (EC50≤32 nM))”.
Turning to `Cc1cc(Nc2cc3ncccc3c(N[C@@H]3C[C@H]4CC[C@@H](C3)N4S(=O)(=O)CC(C)C)n2)n[nH]1` [Example 4-3], the “JAK 1 (pKi)” value at JAK1 is “B (B represents a pKi value between 9 and 10 (Ki between 1 nM and 0.1 nM))”. At JAK2, the “JAK 2 (pKi)” value is “B (B represents a pKi value between 9 and 10 (Ki between 1 nM and 0.1 nM))”. Besides, the “JAK 3 (pKi)” value on JAK3 is “C (C represents a pKi value between 7 and 9 (Ki between 100 nM and 1 nM))”. In addition, the “Tyk 2 (pKi)” value on Tyk2 is “B (B represents a pKi value between 9 and 10 (Ki between 1 nM and 0.1 nM))”. Also, the “decrease in DAI score” value in series [1] is on record as “did not exhibit a statistically significant decrease”. For the same compound, in series [2], the “THP-1 IL4 pIC50” value is “A (A represents a pEC50 value≥7.5 (EC50≤32 nM))”. The “BEAS2B pIC50” value in series [3] is reported as “A (A represents a pEC50 value≥7.5 (EC50≤32 nM))”.
Regarding `COCCS(=O)(=O)N1[C@@H]2CCC[C@H]1C[C@H](Nc1nc(Nc3cc(C)[nH]n3)cc3ncccc13)C2` [Example 4-19], the “JAK 3 (pKi)” value at JAK3 is “C (C represents a pKi value between 7 and 9 (Ki between 100 nM and 1 nM))”. Besides, the “Tyk 2 (pKi)” value at Tyk2 was “B (B represents a pKi value between 9 and 10 (Ki between 1 nM and 0.1 nM))”. In addition, in series [1], the “decrease in DAI score” value is reported as “did not exhibit a statistically significant decrease”. Also, the “THP-1 IL4 pIC50” value in series [2] is “A (A represents a pEC50 value≥7.5 (EC50≤32 nM))”. In addition, in series [3], the “BEAS2B pIC50” value was “A (A represents a pEC50 value≥7.5 (EC50≤32 nM))”.
As for `CCS(=O)(=O)N1[C@@H]2CC[C@H]1C[C@H](Nc1nc(Nc3cc(C)[nH]n3)cc3ncccc13)C2` [Example 7, N^5-((1R,3s,5S)-8-(ethylsulfonyl)-8-azabicyclo[3.2.1]octan-3-yl)-N^7-(5-methyl-1H-pyrazol-3-yl)-1,6-naphthyridine-5,7-diamine], the Ki at JAK2 and at Tyk2 was 0.1 to 1 nM throughout. Moreover, in series [1], the “decrease in DAI score” value is reported as “did not exhibit a statistically significant decrease”. In addition, the IC50 in series [2] and in series [3] was < 31.6 nM each time.
With `Cc1cc(Nc2cc3ncccc3c(N[C@@H]3C[C@H]4CCC[C@@H](C3)N4S(=O)(=O)c3cccnc3)n2)n[nH]1` [Example 8, N^7-(5-methyl-1H-pyrazol-3-yl)-N^5-((1R,3s,5S)-9-(pyridin-3-ylsulfonyl)-9-azabicyclo[3.3.1]nonan-3-yl)-1,6-naphthyridine-5,7-diamine], in series [4] (portal vein), the “absorption at the portal vein (Fa%)” value is “less than 10%”. The bioavailability in series [4] (rat, plasma (jugular vein), jugular vein, read-out: oral bioavailability (F %)) is < 5%. In addition, in series [1], the “decrease in DAI score” value is recorded as “statistically significant decrease”. In addition, the IC50 in series [2] and in series [3] was < 31.6 nM throughout.
In the case of `Cc1cc(Nc2cc3ncccc3c(N[C@@H]3C[C@H]4CCC[C@@H](C3)N4S(=O)(=O)c3ccccc3)n2)n[nH]1` [Example 9, N^7-(5-methyl-1H-pyrazol-3-yl)-N^5-((1R,3s,5S)-9-(phenylsulfonyl)-9-azabicyclo[3.3.1]nonan-3-yl)-1,6-naphthyridine-5,7-diamine], the Ki at JAK1 (read-out: JAK 1 (pKi) (converted)), at JAK2 and on Tyk2 was 0.1 to 1 nM throughout. Also, in series [1], the “decrease in DAI score” value was “did not exhibit a statistically significant decrease”. The IC50 in series [2] and in series [3] was < 31.6 nM each time.
